Source: patent publication US20050209299A1, “Inhibition of mixed lineage kinases and uses therefor” (University of Maryland, Baltimore, priority 2004, published 2005)

Columns and labels:
HeLa cells [1] = assay: Mitotic index / mitotic stage assay (DAPI) in synchronized HeLa cells; format: cell-based
Experimental: (§1) In some experiments, cells were synchronized by double thymidine block as previously described (18-19). Briefly, cells were incubated for 16 hours with 2 mM thymidine in 10% FBS containing DMEM. The excess thymidine was washed off with Hanks Buffered Saline Solution (HBSS) and cells were released back into the cell cycle with complete medium. After 8 hours, cells were treated a second time with 2 mM thymidine in 10% FBS containing DMEM for another 16 hours to arrest cells at the G1/S-phase boundary. Synchronized cells were then washed with HBSS and released back into the cell cycle and harvested at various time points after G1/S release for analysis. Cell cycle analysis was done by fluorescence activated cell sorting (FACS) as described below.
Cells grown on coverslips were synchronized at the G1/S-phase boundary as described in Examples 4-5. In some cases, MLK3 was co-expressed with the pEGFP vector in order to identify transfected cells. […] At varying times after release, coverslips were fixed and cellular DNA was stained with DAPI. GFP-positive mitotic cells in prophase, prometaphase, metaphase, anaphase, or telophase were identified, counted, and expressed as a fraction of the total cells counted to determine the mitotic index. Within each experiment, 300 to 350 cells were counted for each condition and time point.

MLK3 [2] = molecular target: T1, MLK3 (Homo sapiens, UniProt Q16584); assay: MLK3 induced JNK phosphorylation in transfected cells (immunoblot); format: cell-based
T1 construct: expressed in transfected cells; host or cells: HeLa
T1 sequence (Q16584 whole entry): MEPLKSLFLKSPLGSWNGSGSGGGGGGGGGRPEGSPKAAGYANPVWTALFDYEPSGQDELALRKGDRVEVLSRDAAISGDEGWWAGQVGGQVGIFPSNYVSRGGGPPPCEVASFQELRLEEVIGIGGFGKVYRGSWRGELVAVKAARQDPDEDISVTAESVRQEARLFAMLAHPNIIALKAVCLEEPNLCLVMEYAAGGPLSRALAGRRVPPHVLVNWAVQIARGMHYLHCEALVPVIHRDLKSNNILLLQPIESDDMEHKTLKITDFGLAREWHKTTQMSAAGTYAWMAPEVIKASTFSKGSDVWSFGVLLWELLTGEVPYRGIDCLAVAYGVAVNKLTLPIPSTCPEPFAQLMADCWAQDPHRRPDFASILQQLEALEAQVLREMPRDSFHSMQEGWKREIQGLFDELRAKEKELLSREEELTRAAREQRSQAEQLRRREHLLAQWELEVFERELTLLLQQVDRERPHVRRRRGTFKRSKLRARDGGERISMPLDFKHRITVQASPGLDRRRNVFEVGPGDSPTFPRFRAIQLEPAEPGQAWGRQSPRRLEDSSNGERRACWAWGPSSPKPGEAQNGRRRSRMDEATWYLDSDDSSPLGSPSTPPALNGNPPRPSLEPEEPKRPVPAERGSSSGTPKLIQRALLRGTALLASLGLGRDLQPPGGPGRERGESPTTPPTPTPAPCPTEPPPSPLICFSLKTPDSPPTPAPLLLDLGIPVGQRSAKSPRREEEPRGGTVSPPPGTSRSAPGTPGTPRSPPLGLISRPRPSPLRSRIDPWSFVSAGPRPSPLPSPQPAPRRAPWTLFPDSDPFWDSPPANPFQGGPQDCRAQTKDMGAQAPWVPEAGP
Experimental: (§2) HeLa, NIH 3T3, HEK293, A549, or MRC-5 cells were grown in a DMEM supplemented with 10% fetal bovine serum (FBS) and penicillin (100 U/ml) and streptomycin (100 μg/ml). Estrogen receptor (ER) negative breast cancer cells, SUM-159, were obtained from the University of Michigan Human Breast Cancer Cell Lines (SUM-Lines) and grown in DMEM+10% FBS. In some experiments, cells were transfected with cDNA (1 μg) for pEGFP (BD Biosciences/Clontech, Palo Alto, Calif.), hemagglutinin (HA)-tagged MLK3, kinase dead mutant MLK3 (MLK3 K144R), GFP-tagged MLK2 (kindly provided by Dr. Donna Dorow), Flag-tagged DLK, or HA-tagged JNK1 using Lipofectamine® (Invitrogen, Carlsbad, Calif.). Transfected cells were harvested 16-24 hours after transfection.
(§3) For protein analysis, cells were washed twice with cold phosphate buffered saline (PBS), lysed with 300 μl of tissue lysis buffer (TLB) (20 mM Tris-base, pH 7.4, 137 mM NaCl, 2 mM EDTA, 1% Triton X-100, 25 mM β-glycerophosphate, 2 mM sodium pyrophosphate, 10% glycerol, 1 mM sodium orthovanadate, 1 mM phenylmethysulfonyl fluoride (PMSF), and 1 mM benzamidine) and centrifuged at 20,000×g to clarify lysates. Approximately 20 μg of total protein was separated by SDS-PAGE. […] Immunoreactivity was detected by enhanced chemiluminescence (ECL; Amersham, Buckinghamshire, England).

MLK3 [3] = molecular target: T1, MLK3; assay: MLK3-induced ERK activation in transfected HeLa cells (ppERK immunoblot); format: cell-based; conditions: CEP-11004 500 nM
Experimental: as §2, §3

HeLa cells [4] = assay: Mitotic spindle immunostaining (α/γ-tubulin, DAPI) in synchronized HeLa cells; format: cell-based
Experimental: as §1
(§4) Cells grown on round glass coverslips in 6-centimeter plates were synchronized at the G1/S-phase boundary using excess thymidine as described in Example 4. At the indicated time after release back into the cell cycle, coverslips were fixed with 4% paraformaldehyde for 8 minutes and permeabilized with 0.1% Triton X-100 in PBS for 2 minutes. Cell staining patterns were confirmed in cells that were fixed and permeabilized with cold methanol for 10 minutes. Cells were stained with antibodies against MLK3, α-tubulin, cyclin B1, phospho-specific histone H3, or p62 nucleoporin followed by incubation with fluorescein or Texas Red conjugated secondary antibodies and counterstaining for cellular DNA with 4′,6-diamidino-2-phenylindole (DAPI, 0.2 μg/ml in PBS). Cells were identified using Nikon E800 Epi-fluorescence microscope (Image Systems, Columbia, Md.) and captured with a Hamamatsu CCD camera. Cell images were processed using IPlab software (Scanalytics, Fairfax, Va.).

MLK3 [5] = molecular target: T1, MLK3; conditions: reference 11; cited from earlier work
MLK3 [6] = molecular target: T1, MLK3; assay: MLK3 kinase assay (immunoprecipitated from treated transfected cells, MBP substrate); format: cell-based
Experimental: Immunoprecipitated MLK3 was incubated for 45 min at 30° C. with kinase buffer containing 10 μCi γ-^32P ATP, 20 μM cold ATP, and 0.5 μg myelin basic protein (MBP) as a substrate. The reaction was quenched with 2×SDS sample buffer, separated by SDS-PAGE and transferred to PVDF membranes (Perkin Elmer, Boston, Mass.). Radioactive phosphate incorporation into MBP and MLK3 were analyzed by phosphorimager (Amersham Biosciences/Molecular Dynamics) and immunoblotting, respectively.

HeLa cells [7] = assay: Cell proliferation assay (cell counting, trypan blue); format: cell-based; conditions: CEP-11004 500 nM, up to 72 hours, cell number
Experimental: (§5) Following treatments cells were counted on a hemocytometer following trypsinization and staining with trypan blue (Sigma). Greater than 95% of the cells excluded trypan blue dye. Cell proliferation also was measured using a colony formation assay. […] Following incubation for 8-14 days, cells were fixed for 10 minutes in 4% paraformaldehyde and stained with 0.2% crystal violet (in 20% methanol) for 1-2 minutes. Cells were washed several times with distilled water and colonies formed (at least 40 cells/per colony) were counted.

NIH 3T3 cells = assay: as above; format: cell-based; conditions: CEP-11004 500 nM, up to 72 hours, cell number
Experimental: as §5

MKK1 = assay: Constitutively active MKK1 induced ERK activation in transfected HeLa cells (ppERK immunoblot); format: cell-based; conditions: CEP-11004 500 nM
Experimental: as §2, §3

[8] = test system: A549 airway epithelia carcinoma cell; assay: Colony formation assay; format: cell-based; conditions: varying doses, 14 days, crystal violet
Experimental: as §5

HeLa cells [9] = assay: FACS analysis of DNA content (cell cycle); format: cell-based
Experimental: as §1
Synchronized cells were trypsinized, washed with PBS, fixed with 3 ml of cold (−20° C.) 70% ethanol, and stored at 4° C. overnight. Cells then were incubated with 100 μg/ml propidium iodide (Sigma) dissolved in 0.2 M Tris, pH 7.5, 20 mM EDTA, 1 mg/ml RNase A (Sigma) for 1 hour at room temperature and diluted with an equal volume of PBS. DNA content was measured by flow cytometry (FACScan Analyzer, BD Biosciences) and was analyzed using the Sync Wizard Model, ModFit LT software (BD Biosciences). […]

Cdc2 = Cdc2 kinase activity (immunoprecipitated, histone substrate) in synchronized HeLa cells; format: cell-based
Experimental: as §1
Cdc2 was immunoprecipitated from cell lysates by incubating with Cdc2 antibody (0.5 μg) for 2 hours on ice. The lysates then were incubated with protein G-sepharose with mixing at 4° C. for an additional 2 hours. The immune-complex was washed with cold kinase buffer and incubated for 30 min at 30° C. with kinase buffer containing 10 μCi γ-^32P ATP, 20 μM cold ATP, and 2.5 μg histone (Type III-SS, Sigma) as a substrate. The reactions were stopped with SDS-PAGE sample buffer and the proteins were resolved by SDS-PAGE. Incorporation of ^32P into histone was determined by phosphorimager analysis.

cyclin B1 = assay: Cyclin B1 immunoblot in synchronized HeLa cells; format: cell-based
Experimental: as §1
For protein analysis, cells were washed twice with cold phosphate buffered saline (PBS), lysed with 300 μl of tissue lysis buffer (TLB) (20 mM Tris-base, pH 7.4, 137 mM NaCl, 2 mM EDTA, 1% Triton X-100, 25 mM β-glycerophosphate, 2 mM sodium pyrophosphate, 10% glycerol, 1 mM sodium orthovanadate, 1 mM phenylmethysulfonyl fluoride (PMSF), and 1 mM benzamidine) and centrifuged at 20,000×g to clarify lysates. Approximately 20 μg of total protein was separated by SDS-PAGE. Proteins were transferred to PVDF membrane (Perkin Elmer Life Sciences; Boston, Mass.), blocked for 1-2 hours with 5% nonfat dry milk in Tris-buffered saline (TBS) (50 mM Tris-base, pH 7.4, 0.15 M NaCl, and 0.1% Tween-20) and incubated with the primary antibodies in TBS containing 1% BSA solution for 1 to 16 hours. Membranes were washed several times in TBS-Tween solution and incubated with HRP conjugated anti-mouse or anti-rabbit antibodies (0.1 μg/ml). Immunoreactivity was detected by enhanced chemiluminescence (ECL; Amersham, Buckinghamshire, England).

HEK293 cells = assay: FACS analysis of DNA content (cell cycle); format: cell-based; conditions: treated for 20 hours; indicative of arrest in G2 or M-phase
Experimental: Synchronized cells were trypsinized, washed with PBS, fixed with 3 ml of cold (−20° C.) 70% ethanol, and stored at 4° C. overnight. Cells then were incubated with 100 μg/ml propidium iodide (Sigma) dissolved in 0.2 M Tris, pH 7.5, 20 mM EDTA, 1 mg/ml RNase A (Sigma) for 1 hour at room temperature and diluted with an equal volume of PBS. DNA content was measured by flow cytometry (FACScan Analyzer, BD Biosciences) and was analyzed using the Sync Wizard Model, ModFit LT software (BD Biosciences). To determine the percentage of G1, S and G2/M-phase cells, the settings for 2N and 4N peaks were defined within each experiment from the G1/S arrested cells and applied to all samples within a given experiment.

histone H3 = assay: Phospho-histone H3 (serine 10) immunofluorescence in synchronized HeLa cells; format: cell-based
Experimental: as §1, §4

ERK pathway = conditions: neuronal cells, reported (12); cited from earlier work
[10] = 400 nM, added 5 hours after release
[11] = treated at end of S-phase for 4 hours
[12] = 11 and 13 hours after G1/S-phase release, vs untreated

## 3,9-bis-[(isopropylthio)methyl]-(8R*,9S*, 11S*)-(−)-9-hydroxy-9-methoxycarbonyl-8-methyl-2,3,9,10-tetrahydro-8,11-epoxy-1H,8H,11H-2,7b,11a-triazadibenzo(a,g)cycloocta(cde)trinden-1-one [CEP-11004]
HeLa cells [1]; [10]
  cells in metaphase or anaphase/telophase at 9 hours after G1/S: not evident
  mitotic stage at 11 hours after G1/S release: primarily accumulated in pro-metaphase
HeLa cells [1]; 400 nM, added 5 hours after release, vs untreated
  pro-metaphase cells at 9 hours after G1/S: accumulation of pro-metaphase cells
HeLa cells [1]; as low as, FIGS. 6A-6C
  concentrations at which mitotic arrest occurs: 100 to 200 nM
HeLa cells [1]; various concentrations for 8 hours (13 hours after G1/S release)
  percentage of pro-metaphase cells vs concentration: dose-dependent increase
MLK3 [2]; 100 nM CEP-11004, HA-MLK3 + HA-JNK1 co-expressed
  inhibition of MLK3 induced JNK1 phosphorylation: 80%
MLK3 [2]; CEP-11004 500 nM, 4 hours, transfected cells
  MLK3 induced JNK phosphorylation: inhibited MLK3
MLK3 [3]
  MLK3-induced ERK activation: inhibited
HeLa cells [4]; [11]
  chromosome organization (DAPI): highly disorganized
  microtubule organization (α-tubulin) in mitotic cells: significant disruption
  mitotic cells with aberrant microtubule organization: Greater than 60%
  number of spindle poles (γ-tubulin): no effect
HeLa cells [4]; treated for 4 hours, data not shown
  microtubules of interphase cells: no apparent effects
MLK3 [5]
  specificity towards MLK3 as compared to MLK2: approximately 3 fold
MLK3 [6]; HA-MLK3 in HeLa cells, CEP-11004 500 nM, 4 hours
  expressed MLK3 activity (MBP phosphorylation): significantly inhibited
MLK3 [6]; data not shown
  MLK3 activity during G2 and M-phase transitions: blocked
HeLa cells [7]
  HeLa cell proliferation: inhibited
NIH 3T3 cells
  proliferation of NIH 3T3 cells: unaffected
MKK1
  activity of MKK1 (non-MLK related protein kinase): does not affect
[8]
  A549 colony formation: dose dependent inhibition
HeLa cells [9]; added 5 hours after G1/S release, 11 and 13 hours after release
  cell cycle progression in synchronized HeLa cells (4N DNA): arrest in G2 or M-phase
HeLa cells [9]; treated for 20 hours, indicative of arrest in G2 or M-phase
  DNA content by FACS, HeLa cells: accumulated 4N DNA
Cdc2; [12]
  Cdc2 kinase activity in synchronized HeLa cells: elevated Cdc2 kinase activity
Cdc2; 100 or 200 nM CEP-11004
  Cdc2 activity in mock transfected vs MLK3 transfected cells: higher Cdc2 activity
Cyclin B1; [12]
  cyclin B1 expression in synchronized HeLa cells: sustained cyclin B1 expression
Cyclin B1; 100 or 200 nM CEP-11004, 8 hours
  cyclin B1 levels in mock transfected cells: elevated
Cyclin B1; 100 or 200 nM, vs mock transfected
  cyclin B1 levels in MLK3 transfected cells: lower cyclin B1 levels
HEK293 cells
  DNA content by FACS, HEK293 cells: accumulated 4N DNA
Histone H3; added 5 hours after G1/S release, additional 4 hours
  nuclear pH3 staining during prophase: did not contain nuclear pH3 staining
Histone H3; both untreated and treated cells
  pH3 staining after NEB in pro-metaphase: readily apparent
Histone H3; data not shown
  lowest dose with inhibited pH3 staining in early mitotic cells: 200 nM
Histone H3; p62 nucleoporin co-staining
  pH3 staining in early mitosis before NEB: not observed

## CCSCc1ccc2c(c1)c1c3c(c4c5cc(CSCC)ccc5n5c4c1n2[C@H]1C[C@](O)(C(=O)OC)[C@]5(C)O1)CNC3=O (relative stereo) [CEP-1347, 3,9-bis[(ethylthio)methyl]-(8R*,9S*,11-S*)-(−)-9-hydroxy-9-methoxycarbonyl-8-methyl 2,3,9,10-tetrahydro-8,11-epoxy-1H,8H, 11H-2,7b,11a-triazadibenzo(a,g)cycloocta(cde)trinden-1-one]
ERK pathway
  effect on the ERK pathway: activate the ERK pathway
